This note sets out measurements from patent US20060004051A1, “Compounds” (priority 2002, published 2006).

For data set [1], the system named is TGF-β signalling (PAI-1 promoter linked to firefly luciferase) in HepG2 cells. Briefly: Cellular transcriptional assay (PAI-1 promoter luciferase reporter, TGF-β stimulated). Conditions: for IC50: Homo sapiens, HepG2, read-out: TGF-β cellular activity (IC50). For orientation: In a reporter assay the amount or activity of a reporter protein is the signal.
Experimental: The assay was performed in HepG2 cells stably transfected with the PAI-1 promoter (known to be a strong TGF-β responsive promoter) linked to a luciferase (firefly) reporter gene. The compounds were selected on their ability to inhibit luciferase activity in cells exposed to TGF-β. In addition, cells were transfected with a second luciferase (Renilla) gene which was not driven by a TGF-β responsive promoter and was used as a toxicity control.
96 well microplates were seeded, using a multidrop apparatus, with the stably transfected cell line at a concentration of 35000 cells per well in 200 μl of serum-containing medium. These plates were placed in a cell incubator.
18 to 24 hours later (Day 2), cell-incubation procedure was launched. Cells were incubated with TGF-β and a candidate compound at concentrations in the range 50 nM to 10 μM (final concentration of DMSO 1%). The final concentration of TGF-β (rhTGFβ-1) used in the test was 1 ng/mL. […] The final volume of the test reaction was 150 μl. Each well contained only one candidate compound and its effect on the PAI-1 promoter was monitored.
Columns 11 and 12 were employed as controls. Column 11 contained 8 wells in which the cells were incubated in the presence of TGF-β, without a candidate compound. Column 11 was used to determine the ‘reference TGF-β induced firefly luciferase value’ against which values measured in the test wells (to quantify inhibitory activity) were compared. In wells A12 to D12, cells were grown in medium without TGF-β. […]
12 to 18 hours later (day 3), the luciferase quantification procedure was launched. […] Following agitation (15 to 30 mins), luciferase activities of the plates were read in a dual-injector luminometer (BMG lumistar). For this purpose, 50 μl of luciferase assay reagent and 50 μl of ‘Stop & Glo’ buffer were injected sequentially to quantify the activities of both luciferases. […] For each of the compounds tested, a concentration response curve was constructed from which an IC50 value was determined graphically.
Data set [2] deals with T1, recombinant GST-ALK5 (residues 198-503) (Homo sapiens, UniProt P36897).
T1 construct: recombinant GST-ALK5 (residues 198-503)
T1 sequence (P36897 198-503): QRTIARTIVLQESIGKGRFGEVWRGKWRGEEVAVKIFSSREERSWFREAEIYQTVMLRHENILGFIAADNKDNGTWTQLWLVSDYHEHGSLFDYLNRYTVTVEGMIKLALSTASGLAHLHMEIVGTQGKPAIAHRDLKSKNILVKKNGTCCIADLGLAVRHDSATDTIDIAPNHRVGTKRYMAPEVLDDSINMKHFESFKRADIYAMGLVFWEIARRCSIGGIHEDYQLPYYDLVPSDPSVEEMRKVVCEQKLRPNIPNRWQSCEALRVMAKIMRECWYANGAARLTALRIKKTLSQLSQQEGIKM
Briefly: Alk5 fluorescence polarization assay. The following applies: rhodamine green-labelled ligand 1 nM, ALK5 10 nM, read-out: ALK5 receptor modulator activity (IC50). It counts as binding. The procedure:
Assay 2 (Alk5 Fluorescence Polarization Assay)
Kinase inhibitor compounds conjugated to fluorophores, can be used as fluorescent ligands to monitor ATP competitive binding of other compounds to a given kinase. The increase in depolarization of plane polarized light, caused by release of the bound ligand into solution, is measured as a polarization/anisotropy value. This protocol details the use of a rhodamine green-labelled ligand for assays using recombinant GST-ALK5 (residues 198-503).
Assay buffer components: 62.5 mM Hepes pH 7.5 (Sigma H-4034), 1 mM DTT (Sigma D-0632), 12.5 mM MgCl2 (Sigma M-9272), 1.25 mM CHAPS (Sigma C-3023). […]
ALK5 was added to assay buffer containing the above components and 1 nM of the rhodamine green-labelled ligand so that the final ALK5 concentration was 10 nM based on active site titration of the enzyme. […] The plates were read immediately on a LJL Acquest fluorescence reader (Molecular Devices, serial number AQ1048) with excitation, emission, and dichroic filters of 485 nm, 530 nm, and 505 nm, respectively. The fluorescence polarization for each well was calculated by the Acquest reader and then imported into curve fitting software for construction of concentration response curves. The normalized response was determined relative to the high controls (1 μl DMSO in column 12, rows A-D) and the low controls (1 μl of control compound in column 12, rows E-H). […]

Turning to `O=C1C=CCC1` [CPO, Cyclopentenone, reference compound], the “firefly and renilla luciferase activities (toxicity control)” value in data set [1] (500 μM CPO with TGF-β, relative to TGF-β only) is given as “around 50%”.

Compound `Nc1nc(-c2ccccn2)c(-c2ccnc(-c3ccc(N4CCOCC4)cc3)c2)s1` [Example 1] had a melting point of 246 °C.

Regarding `Cc1cccc(-c2nc(N)sc2-c2ccnc(-c3ccc(S(C)(=O)=O)cc3)c2)n1` [Example 2, 5-{2-[4-(methanesulfonyl)phenyl]pyridin-4-yl}-4-(6-methylpyridin-2-yl)-1,3-thiazol-2-amine], the melting point fell in the range of 236 to 238 °C.

With `CCN1CCN(c2ccc(-c3cc(-c4sc(N)nc4-c4cccc(C)n4)ccn3)cc2)CC1` [Example 3], the melting point lay within 230 to 232 °C. In addition, in data set [1], the IC50 worked out at 0.029 µM. For the same compound, the concentration for half-maximal inhibition (IC50) in data set [2] was found to be 0.014 µM.

`Cc1cccc(-c2nc(N)sc2-c2ccnc(-c3ccc(N4CCOCC4)cc3)c2)n1` [Example 4, 5-{2-[4-(morpholin-4-yl)phenyl]pyridinyl-4-yl}-4-(6-methylpyridin-2-yl)-1,3-thiazol-2-amine] registered a melting point of 250 to 252 °C.

Turning to `Cc1cccc(-c2nc(N)sc2-c2ccnc(-c3ccc(C(=O)N4CCOCC4)cc3)c2)n1` [Example 5, 5-{2-[4-((morpholin-4-yl)carbonyl)phenyl]pyridin-4-yl]-4-(6-methylpyridin-2-y)-1,3-thiazol-2-amine], the melting point lay within 158 to 160 °C.

In the case of `Cc1cccc(-c2nc(N)sc2-c2ccnc(-c3ccc(C(=O)NC4CCOCC4)cc3)c2)n1` [Example 6, 5-{2-[4((tetrahydropyran-4-yl)-aminocarbonyl)-phenyl]pyridin-4-yl}-4-(6-methylpyridin-2-yl)-1,3-thiazol-2-amine], the melting point was 230 to 232 °C.

`Cc1cccc(-c2nc(N)sc2-c2ccnc(-c3ccc(CN4CCOCC4)cc3)c2)n1` [Example 7, 5-{2-[4-((morpholin-4-yl)methyl)phenyl]pyridin-4-yl}-4-(6-methylpyridin-2-yl)-1,3-thiazol-2-amine]: the melting point was 190 to 192 °C.

`COc1ccc(-c2cc(-c3sc(N)nc3-c3cccc(C)n3)ccn2)cc1` [Example 8, 5-{2-[4methoxyphenyl]pyridin-4-yl}-4-(6methylpyridin-2-yl)-1,3-thiazol-2-amine] showed a melting point of 188 to 190 °C.

The compound `Cc1cccc(-c2nc(N)sc2-c2ccnc(-c3ccc(OC(F)(F)F)cc3)c2)n1` [Example 9, 5-{2-[4-trifluoromethoxyphenyl]pyridin-4-yl}-4-(6-methylpyridin-2-yl)-1,3-thiazol-2-amine] returned a melting point of 222 to 224 °C.

Regarding `Cc1cccc(-c2nc(N)sc2-c2ccnc(-c3ccc(OCCN4CCCC4)cc3)c2)n1` [Example 11, 5-{2-[4-(2-(pyrrolidin-1-yl)-ethoxy)-phenyl]pyridin-4-yl}-4-(6-methylpyridin-2-yl)-1,3-thiazol-2-amine], the melting point fell in the range of 176 to 178 °C.

Compound `Cc1cccc(-c2nc(N)sc2-c2ccnc(-c3ccc(OCc4cn(C)cn4)cc3)c2)n1` [Example 12, 5-{2-[4-((1-methyl-imidazol-4-yl)methyloxy)-phenyl]pyridin-4-yl}-4-(6-methylpyridin-2-yl)-1,3-thiazol-2-amine] yielded a melting point of 226 to 228 °C.

`Cc1cccc(-c2sc(N)nc2-c2ccnc(-c3ccc(Cl)cc3)c2)n1` [Example 13, 4-[2-(4-chlorophenyl)pyridin-4-yl]-5-(6-methylpyridin-2-yl]-1,3-thiazol-2-amine]: the melting point came out at 222 °C.

As to `Cc1cccc(-c2sc(N)nc2-c2ccnc(-c3ccc(OC(F)(F)F)cc3)c2)n1` [Example 14, 4-[2-(4-trifluoromethoxyphenyl)pyridin-4-yl]-5-[6-methylpyridin-2-yl]-1,3-thiazol-2-amine], the melting point stood at 232 °C.

Compound `Cc1cccc(-c2sc(N)nc2-c2ccnc(-c3ccc(C(=O)N4CCOCC4)cc3)c2)n1` [Example 17] came in with a melting point of 246 °C.

Compound `CCN1CCN(C(=O)c2ccc(-c3cc(-c4nc(N)sc4-c4cccc(C)n4)ccn3)cc2)CC1` [Example 18] yielded a melting point of 224 °C.

Take `Cc1cccc(-c2sc(N)nc2-c2ccnc(-c3ccc(CN4CCOCC4)cc3)c2)n1` [Example 19, 4-[2-(4-((morpholin-4-yl)methyl)phenyl)pyridin-4-yl]-5-[6-methylpyridin-2-yl]-1,3-thiazol-2-amine]: the melting point stood at 236 °C.

`Cc1cccc(-c2sc(N)nc2-c2ccnc(-c3ccc(N4CCOCC4)cc3)c2)n1` [Example 20, 4-[2-(4-(morpholin-4-yl)phenyl)pyridin-4-yl]-5-[6-methylpyridin-2-yl]-1,3-thiazol-2-amine] came in with a melting point of 246 °C.

On to `Cc1cccc(-c2sc(N)nc2-c2ccnc(-c3ccc(OCCN4CCCC4)cc3)c2)n1` [Example 21, 4-[2-(4-(2-(pyrolidin-1-yl)-ethoxy)phenyl)pyridin-4-yl]-5-[6-methylpyridin-2-yl]-1,3-thiazol-2-amine], for which the melting point is 150 °C.

For `Cc1cccc(-c2sc(N)nc2-c2ccnc(-c3ccc(OCC(N)=O)cc3)c2)n1` [Example 22, 4-[2-(4-(aminocarbonylmethyloxy)phenyl)pyridin-4-yl]-5-[6-methylpyridin-2-yl]-1,3-thiazol-2-amine], the melting point was 191 °C.

As for `Cc1cccc(-c2sc(N)nc2-c2ccnc(-c3ccc(OCC(=O)N4CCOCC4)cc3)c2)n1` [Example 23, 4-[2-(4-((morpholin-4-yl)carbonylmethyloxy)phenyl)pyridin-4-yl]-5-[6-methylpyridin-2-yl]-1,3-thiazol-2-amine], the melting point is 172 °C.

With `Cc1cccc(-c2sc(N)nc2-c2ccnc(-c3ccc(CN4CCCC4)cc3)c2)n1` [Example 24, 4-[2-(4-((pyrrolidin-1-yl)methyl)phenyl)pyridin-4-yl]-5-[6-methylpyridin-2-yl]-1,3-thiazol-2-amine], the melting point was found to be 200 °C.

For `Cc1cccc(-c2sc(N)nc2-c2ccnc(-c3ccc(CN(C)C)cc3)c2)n1` [Example 25, 4-[2-(4-((dimethylamino)methyl)phenyl)pyridin-4-yl]-5-[6-methylpyridin-2-yl]-1,3-thiazol-2-amine], the melting point was 210 °C. Also, in data set [1], the IC50 stood at 0.031 µM. Further, in data set [2], the IC50 turned out to be 0.029 µM.

In turn, `Nc1nc(-c2ccnc(-c3ccc(C(=O)NC4CCOCC4)cc3)c2)c(-c2ccccn2)s1` [Example 26, 4-[2-(4-((tetrahydropyran-4-yl)aminocarbonyl)phenyl)pyridin-4-yl]-5-[pyridin-2-yl]-1,3-thiazol-2-amine] registered a melting point of 268 °C.

Take `Nc1nc(-c2ccnc(-c3ccc(N4CCOCC4)cc3)c2)c(-c2ccccn2)s1` [Example 27, 4-[2-(4-(morpholin-4-yl)phenyl)pyridin-4-yl]-5-[pyridin-2-yl]-1,3-thiazol-2-amine]: the melting point was found to be 276 °C.

Broadly, the melting point is the temperature of the solid-liquid transition. In general, IC50 refers to the concentration needed to halve the response being measured.
